The source of these data is patent US5624923A, “Tricyclic diazepine vasopressin antagonists and oxytocin antagonists” (priority 1995, dated 1997).

One assay concerns Vasopressin V2. As to the kind of experiment: Vasopressin V2 Antagonist Activity in Conscious Hydrated Rats. The following applies: AVP 0.4 μg/kg i.p. It is filed as in vivo, rat. In outline: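 Four-hour urine output, osmolality and electrolytes (Na+, K+, Cl−) recorded in water-loaded rats (30 mL/kg deionized water orally) given AVP i.p. at 0.4 μg/kg. Test compounds were given orally at 0.1–100 mg/kg 1 h before AVP; 2–4 rats per compound.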

Assay [1] has as its target T1, Rat Kidney Medullary V2 Receptors (Rattus norvegicus, UniProt Q00788).
T1 construct: Medullary tissues from rat kidneys are dissected out; from tissue; host or cells: rat kidney medulla membranes
As to the kind of experiment: Binding Assay to Rat Kidney Medullary V2 Receptors. The settings on record: for IC50: rat kidney medulla membranes, read-out: V2 IC50. The method, boiled down:
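Membranes were prepared from rat kidney medulla and stored in 50.0 mM Tris-HCl pH 7.4 with 0.2% BSA and 0.1 mM PMSF. Radioligand competition ran 120 min at bench temperature, with 1.0 μM unlabeled ligand defining nonspecific binding. Compounds were added in 50% DMSO; filtration, tritium scintillation counting, IC50 from competition analysis.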

In another assay the target is T2, oxytocin receptors (Rattus norvegicus, UniProt P70536).
T2 construct: The uteri are dissected out, cleaned of fat and connective tissues; from tissue; host or cells: uterus of DES-treated female Sprague-Dawley rats
T2 sequence (P70536 1-388): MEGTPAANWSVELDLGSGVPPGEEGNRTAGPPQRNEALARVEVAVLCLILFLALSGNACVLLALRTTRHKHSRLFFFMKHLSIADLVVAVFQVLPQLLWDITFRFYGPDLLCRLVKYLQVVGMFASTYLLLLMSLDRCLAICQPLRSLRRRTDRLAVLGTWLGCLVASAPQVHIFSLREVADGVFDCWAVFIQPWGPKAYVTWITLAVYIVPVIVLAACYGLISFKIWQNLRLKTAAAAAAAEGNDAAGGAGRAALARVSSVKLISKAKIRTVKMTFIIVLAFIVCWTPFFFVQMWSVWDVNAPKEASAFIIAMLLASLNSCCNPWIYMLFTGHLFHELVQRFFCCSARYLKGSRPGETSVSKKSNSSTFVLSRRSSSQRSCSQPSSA
As to the kind of experiment: Oxytocin Receptor Binding. The following applies: for IC50: 1.0 nM [3H]oxytocin. In outline: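 Membranes from uteri of DES-primed (0.3 mg/kg i.m., 18 h) female Sprague-Dawley rats. Competition with 1.0 nM [3H]oxytocin in 50 mM Tris.HCl pH 7.4, 5 mM MgCl2 with protease inhibitors, 60 min at 22 °C, filtration read-out. Non-specific binding with 1.0 uM unlabeled OT; IC50 calculated.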

T1 sequence (Q00788 whole entry): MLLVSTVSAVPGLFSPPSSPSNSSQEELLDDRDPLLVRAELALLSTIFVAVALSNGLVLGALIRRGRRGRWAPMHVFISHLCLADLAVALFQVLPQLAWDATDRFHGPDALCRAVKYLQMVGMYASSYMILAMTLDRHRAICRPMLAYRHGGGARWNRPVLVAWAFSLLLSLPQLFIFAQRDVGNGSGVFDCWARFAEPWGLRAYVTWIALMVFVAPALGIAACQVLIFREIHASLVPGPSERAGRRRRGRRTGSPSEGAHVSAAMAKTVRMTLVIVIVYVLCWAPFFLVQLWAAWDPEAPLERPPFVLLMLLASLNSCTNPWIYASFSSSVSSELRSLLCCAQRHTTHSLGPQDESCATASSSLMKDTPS

Take `O=C(Nc1ccc(C(=O)N2Cc3cccn3Cc3ccccc32)cc1)C(O)c1ccccc1` (racemic) [Example 588, (±) α-Hydroxy-N-[4-(5H-pyrrolo[2,1c][1,4]benzodiazepin-10(11H)-ylcarbonyl)phenyl]benzeneacetamide]: in the assay with Vasopressin V2 (10 mg/kg orally), the Osmolality amounted to 687 mOsm/kg and the “Urine Volume” value is listed as 9.5 ml/4 hrs. Besides, the IC50 in assay [1] was 12 nM. Further, the IC50 on oxytocin receptors was determined as 2000 nM. The compound further showed an inhibition at 10 µM on oxytocin receptors ([3H]oxytocin) of 90%.
Turning to `Cc1ccccc1C(=O)Nc1ccc(C(=O)N2Cc3cccn3Cc3ccccc32)cc1` [Example 3, 2-Methyl-N-[4-(5H-pyrrolo[2,1-c][1,4]-benzodiazepin-10(11H)-ylcarbonyl)phenyl]benzamide], the results for the Osmolality in the assay on Vasopressin V2 (1 mg/kg orally), with Vasopressin V2 (3 mg/kg orally) and in the assay on Vasopressin V2 (10 mg/kg orally) were 515 ± 79 mOsm/kg, 584 ± 56 mOsm/kg and 567 ± 33 mOsm/kg, respectively. Moreover, the “Urine Volume” value in the assay on Vasopressin V2 (1 mg/kg orally) stood at 6.5 ± 1 ml/4 hrs; in the assay on Vasopressin V2 (3 mg/kg orally), 9.6 ± 0.9 ml/4 hrs; in the assay on Vasopressin V2 (10 mg/kg orally), 15.8 ± 1 ml/4 hrs. The figures for the IC50 (in assay [1]; on oxytocin receptors) were 4 nM and 360 nM, respectively. At oxytocin receptors ([3H]oxytocin), this compound yielded an inhibition at 10 µM of 90%.
Consider `O=C(Nc1ccc(C(=O)N2Cc3cccn3Cc3ccccc32)cc1)c1cc(Cl)ccc1Cl` [Example 4, N-[4-(5H-pyrrolo[2,1-c][1,4]benzodiazepin-10(11H)-ylcarbonyl)phenyl]-2,5-dichlorobenzamide], for which the figures for the Osmolality with Vasopressin V2 (1 mg/kg orally), in the assay with Vasopressin V2 (3 mg/kg orally) and with Vasopressin V2 (10 mg/kg orally) were 1129 mOsm/kg, 646 ± 115 mOsm/kg and 571 mOsm/kg, respectively. Also, the “Urine Volume” value in the assay with Vasopressin V2 (1 mg/kg orally) turned out to be 2 ml/4 hrs; with Vasopressin V2 (3 mg/kg orally), 9.5 ± 1.2 ml/4 hrs; in the assay on Vasopressin V2 (10 mg/kg orally) it was 16.9 ml/4 hrs. Moreover, the half-inhibitory concentration (IC50) in assay [1] was determined as 14 nM; on oxytocin receptors, 660 nM. In addition, on oxytocin receptors ([3H]oxytocin), the inhibition at 10 µM came out at 98%.
With `O=C(Nc1ccc(C(=O)N2Cc3cccn3Cc3ccccc32)cc1)c1ccc(Cl)cc1Cl` [Example 6, N-[4-(5H-pyrrolo[2,1-c][1,4]benzodiazepin-10(11H)-ylcarbonyl)phenyl]-2,4-dichlorobenzamide], the Osmolality in the assay on Vasopressin V2 (1 mg/kg orally) amounted to 970 mOsm/kg; in the assay on Vasopressin V2 (3 mg/kg orally), 519 ± 30 mOsm/kg; in the assay on Vasopressin V2 (10 mg/kg orally), 346 ± 25 mOsm/kg; in the assay with Vasopressin V2 (30 mg/kg orally), 616 ± 87 mOsm/kg. In addition, the “Urine Volume” value with Vasopressin V2 (1 mg/kg orally) turned out to be 6 ml/4 hrs; in the assay on Vasopressin V2 (3 mg/kg orally) it was 15 ± 1.6 ml/4 hrs; with Vasopressin V2 (10 mg/kg orally), 20.4 ± 1.1 ml/4 hrs; in the assay on Vasopressin V2 (30 mg/kg orally), 17.9 ± 1.3 ml/4 hrs. Also, the figures for the 50% inhibitory concentration (IC50) (in assay [1]; on oxytocin receptors) were 3 nM and 350 nM, respectively. The compound further came in with an inhibition at 10 µM at oxytocin receptors ([3H]oxytocin) of 92%.
Regarding `O=C(Nc1ccc(C(=O)N2Cc3cccn3Cc3ccccc32)cc1)c1ccccc1Cl` [Example 7], the Osmolality in the assay on Vasopressin V2 (10 mg/kg orally) came to 780 mOsm/kg; in the assay with Vasopressin V2 (30 mg/kg orally), 815 mOsm/kg. The “Urine Volume” value was found to be 9 ml/4 hrs with Vasopressin V2 (10 mg/kg orally) and 12.4 ml/4 hrs with Vasopressin V2 (30 mg/kg orally). Also, the half-maximal inhibitory concentration (IC50) is 5 nM in assay [1] and 130 nM on oxytocin receptors. Besides, the inhibition at 10 µM at oxytocin receptors ([3H]oxytocin) is 97%.
For the compound `O=C(Nc1ccc(C(=O)N2Cc3cccn3-c3ccccc32)cc1)c1ccc(Cl)cc1Cl` [Example 17, N-[4-(pyrrolo(1,2-a]quinoxalin-5(4H)-ylcarbonyl)phenyl]-2,4-dichloro-benzamide], in the assay with Vasopressin V2 (30 mg/kg orally), the Osmolality amounted to 1374 mOsm/kg and the “Urine Volume” value is given as 4.1 ml/4 hrs. The IC50 in assay [1] is 110 nM. Moreover, at oxytocin receptors ([3H]oxytocin), 10 µM produced 31% inhibition.
As to `Cc1ccccc1C(=O)Nc1ccc(C(=O)N2Cc3ccnn3Cc3ccccc32)cc1` [Example 210, N-[4-(4H-Pyrazolo[5,1-c][1,4]benzodiazepin-5(10H)-ylcarbonyl)phenyl]-2-methylbenzamide], in the assay on Vasopressin V2 (10 mg/kg orally), the Osmolality was found to be 451 mOsm/kg and the “Urine Volume” value is listed as 15.2 ml/4 hrs. For the same compound, the IC50 in assay [1] came out at 16 nM. The IC50 on oxytocin receptors is 4000 nM. Further, the inhibition at 10 µM at oxytocin receptors ([3H]oxytocin) was 64%.
The like results for `O=C(Nc1ccc(C(=O)N2Cc3ccnn3Cc3ccccc32)cc1)c1ccc(Cl)cc1Cl` [Example 217, N-[4-(4H-Pyrazolo[5,1-c][1,4]benzo-diazepin-5(10H)-ylcarbonyl)phenyl]-2,4-dichlorobenzamide] were, in that order, 466 mOsm/kg, 14.3 ml/4 hrs, 5 nM, 1200 nM and 87%.
For `O=C(Nc1ccc(C(=O)N2Cc3cccn3Cc3ccccc32)cc1)c1c(Cl)cccc1Cl` [Example 469, N-[4-(5H-pyrrolo[2,1-c][1,4]benzodiazepin-10(11H)-ylcarbonyl)phenyl]-2,6-dichlorobenzamide] the same measures were 548 mOsm/kg, 11.3 ml/4 hrs, 15 nM, 265 nM and 96%.
Consider `Cc1ccccc1C(=O)Nc1ccc(C(=O)N2Cc3cccn3Cc3ccccc32)c(Cl)c1` [Example 470], for which, in the assay with Vasopressin V2 (10 mg/kg orally), the Osmolality came out at 387 mOsm/kg and the “Urine Volume” value is on record as 17 ml/4 hrs. Besides, the 50% inhibitory concentration (IC50) in assay [1] was determined as 4.5 nM. At oxytocin receptors, the 50% inhibitory concentration (IC50) turned out to be 220 nM. At 2.5 µM the inhibition on oxytocin receptors (dose 2.5 μM, [3H]oxytocin) was 92%.
Take `O=C(Nc1ccc(C(=O)N2Cc3cccn3Cc3ccccc32)c(Cl)c1)c1ccc(Cl)cc1Cl` [Example 471]: in the assay on Vasopressin V2 (10 mg/kg orally), the Osmolality was 507 ± 38 mOsm/kg and the “Urine Volume” value is listed as 14.1 ± 1.9 ml/4 hrs. The IC50 in assay [1] came out at 8.3 nM. Further, the IC50 on oxytocin receptors amounted to 350 nM. The compound also showed an inhibition at 10 µM on oxytocin receptors ([3H]oxytocin) of 99%.
Consider `Cc1ccccc1C(=O)Nc1c(C)cc(C(=O)N2Cc3cccn3Cc3ccccc32)cc1C` [Example 472], for which, in the assay on Vasopressin V2 (10 mg/kg orally), the Osmolality worked out at 1453 mOsm/kg and the “Urine Volume” value is recorded as 4.3 ml/4 hrs. Further, the inhibition at 10 µM in assay [1] (10 μM, rat) is 22%. Besides, 10 µM produced 0% inhibition on oxytocin receptors ([3H]oxytocin).
In the case of `O=C(Nc1ccc(C(=O)N2Cc3cccn3Cc3ccccc32)cc1)c1cccc(C(F)(F)F)c1` [Example 474, N-[4-(5H-pyrrolo[2,1-c][1,4]benzodiazepin-10(11H)-ylcarbonyl)phenyl]-3-(trifluoromethyl)benzamide], in the assay with Vasopressin V2 (10 mg/kg orally), the Osmolality is recorded as 619 mOsm/kg and the “Urine Volume” value came to 11.5 ml/4 hrs. In assay [1], the IC50 came out at 38 nM. The same compound displayed an inhibition at 10 µM at oxytocin receptors ([3H]oxytocin) of 18%.
In the case of `O=C(Nc1ccc(C(=O)N2Cc3cccn3Cc3ccccc32)cc1)c1sccc1Cl` [Example 476, N-[4-(5H-pyrrolo[2,1-c][1,4]benzodiazepin-10(11H)-ylcarbonyl)phenyl]-3-chlorothiophene-2-carboxamide], in the assay with Vasopressin V2 (10 mg/kg orally), the Osmolality is reported as 1233 mOsm/kg and the “Urine Volume” value was found to be 5 ml/4 hrs. Further, the IC50 in assay [1] amounted to 69 nM. The same compound registered an IC50 at oxytocin receptors of 820 nM. On oxytocin receptors ([3H]oxytocin), the inhibition at 10 µM turned out to be 94%.
Regarding `COc1cc(C(=O)N2Cc3cccn3Cc3ccccc32)ccc1NC(=O)c1cccc(F)c1C` [Example 479, N-[4-(5H-pyrrolo[2,1-c][1,4]benzodiazepin-10(11H)-ylcarbonyl)-2-methoxy-phenyl]-3-fluoro-2-methylbenzamide], in the assay on Vasopressin V2 (10 mg/kg orally), the Osmolality was 1042 mOsm/kg and the “Urine Volume” value was 6 ml/4 hrs. Further, the IC50 in assay [1] is 8 nM. On oxytocin receptors, this compound yielded an IC50 of 150 nM. The inhibition at 10 µM on oxytocin receptors ([3H]oxytocin) is 76%.
`Cc1c(F)cccc1C(=O)Nc1ccc(C(=O)N2Cc3cccn3Cc3ccccc32)c(Cl)c1` [Example 481, N-[4-(5H-pyrrolo[2,1-c][1,4]benzodiazepin-10(11H)-ylcarbonyl)-3-chlorophenyl]-3-fluoro-2-methylbenzamide]: in the assay with Vasopressin V2 (10 mg/kg orally), the Osmolality came out at 473 mOsm/kg. In the assay on Vasopressin V2 (10 mg/kg orally), the “Urine Volume” value worked out at 17.2 ml/4 hrs. The half-maximal inhibitory concentration (IC50) in assay [1] worked out at 3.4 nM; at oxytocin receptors, 240 nM. At oxytocin receptors ([3H]oxytocin), this compound registered an inhibition at 10 µM of 88%.
The like results for `Cc1ccc(F)cc1C(=O)Nc1ccc(C(=O)N2Cc3cccn3Cc3ccccc32)c(Cl)c1` [Example 482, N-[4-(5H-pyrrolo[2,1-c][1,4]benzodiazepin-10(11H)-ylcarbony)-3-chlorophenyl]-5-fluoro-2-methylbenzamide] were, in that order, 372 ± 17 mOsm/kg, 22 ± 0.9 ml/4 hrs, 2.3 nM, 126 nM and 97%.

One may read the IC50 as the midpoint of a concentration-inhibition curve. For orientation: inhibition means the share of the control response that was lost under treatment.
